Target: KIF18A (Homo sapiens (Human), UniProt Q8NI77)
Test: KIF18A ATPase activity under tubulin stimulation (ADP-Glo assay)
Format: biochemical
Conditions: KIF18A 30 nM, ATP 150 μM, pig microtubules
Protocol: This experiment assesses the inhibitory effect of the compounds of the present disclosure on the KIF18A target according to the IC50 values by measuring the KIF18A ATPase activity under tubulin stimulation with the presence of the compounds.
• 1. Preparation of 30 mL of reaction buffer: • (1) 450 μL 1M Tris-HCl (pH=7.5)+300 μL 1M MgCl2+30 μL 10% Pluronic F-68 (ThermoFisher, 24040032-100 ml); • (2) adjusting pH to 7.5, and adding water to adjust the volume to 30 mL. • 2. Preparation of a 5 mg/mL pig microtubule (Microtubules; MT) (Cytoskeleton Inc, MT002) stock solution: • (1) 10 mL PM buffer=150 μL 1 M PIPES (pH 7.0)+20 μL 0.5 mM MgCl2+100 μL 2 mM Taxol (Cytoskeleton Inc, TXD01)+9730 μL water. • (2) MT ([…]): Adding 100 μL PM buffer to prepare a 5 mg/mL stock solution. Keeping the MT (Cytoskeleton Inc, MT002) at room temperature for 10-15 minutes, gently mixing and storing same at −80° C. • 3. Preparation of 2 mL of kinase buffer: 2 mL reaction buffer+1 μL 2 mM Taxol (Cytoskeleton Inc, TXD01)+12 μL 5 mg/mL MT (Cytoskeleton Inc, MT002). • 4. Preparation of 2×KIF18A (30 nM) (ChemPartner, CPB-P22-31645) working solution: 2.4 μL 10 μM KIF18A (ChemPartner, CPB-P22-31645)+800 μL 1× kinase buffer. • 5. Preparation of 2×ATP (150 μM) (Promega, G9101) working solution: 12 μL 10 mM ATP+800 μL 1× kinase buffer. • 6. 25 nL of compound was transferred to a 384-well plate using Echo650. • 7. 2.5 μL of 2×KIF18A from Step 4 (final concentration of 30 nM) was added to the 384-well plate and the plate was incubated at 25° C. for 15 minutes. • 8. 2.5 μL of 2×ATP from Step 5 (final concentration of 150 μM) was added to the 384-well plate and the plate was incubated at 25° C. for 15 minutes. • 9. 5 μL ADP-Glo™ Reagent (Promega, G9101) was added to the 384-well plate and the plate was incubated at 25° C. for 40 minutes. • 10. 10 μL of kinase detection reagent (Promega, G9101) was added to the 384-well plate and the plate was incubated at 25° C. for 40 minutes. • 11. Luminescence values were measured using the EnVision Xcite Multilabel Reader (PerkinElmer, 2105-0020).

Sequence of KIF18A (Q8NI77 whole entry): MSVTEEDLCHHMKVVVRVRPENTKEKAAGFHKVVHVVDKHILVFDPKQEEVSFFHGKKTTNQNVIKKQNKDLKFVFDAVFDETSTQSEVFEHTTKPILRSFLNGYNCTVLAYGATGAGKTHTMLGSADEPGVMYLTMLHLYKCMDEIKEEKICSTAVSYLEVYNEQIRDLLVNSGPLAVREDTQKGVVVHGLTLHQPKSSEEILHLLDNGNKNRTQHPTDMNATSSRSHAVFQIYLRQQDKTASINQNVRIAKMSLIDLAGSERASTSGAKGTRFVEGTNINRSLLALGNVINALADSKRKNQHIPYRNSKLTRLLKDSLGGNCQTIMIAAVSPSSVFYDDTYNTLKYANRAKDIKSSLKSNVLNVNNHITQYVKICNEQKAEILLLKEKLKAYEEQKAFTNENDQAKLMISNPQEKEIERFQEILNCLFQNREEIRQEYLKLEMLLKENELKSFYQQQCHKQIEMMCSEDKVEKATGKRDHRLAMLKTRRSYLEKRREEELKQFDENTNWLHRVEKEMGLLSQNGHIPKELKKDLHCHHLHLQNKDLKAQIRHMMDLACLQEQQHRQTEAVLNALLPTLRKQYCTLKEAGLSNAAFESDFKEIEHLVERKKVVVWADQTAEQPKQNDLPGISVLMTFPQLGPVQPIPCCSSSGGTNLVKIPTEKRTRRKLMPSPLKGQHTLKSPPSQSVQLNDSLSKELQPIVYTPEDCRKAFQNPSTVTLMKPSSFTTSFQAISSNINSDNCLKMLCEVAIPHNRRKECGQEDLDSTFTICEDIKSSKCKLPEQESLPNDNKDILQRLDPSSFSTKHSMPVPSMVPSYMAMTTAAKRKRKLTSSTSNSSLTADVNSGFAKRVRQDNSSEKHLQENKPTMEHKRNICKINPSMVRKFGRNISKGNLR
Sequence of KIF18A (P02550 whole entry partner): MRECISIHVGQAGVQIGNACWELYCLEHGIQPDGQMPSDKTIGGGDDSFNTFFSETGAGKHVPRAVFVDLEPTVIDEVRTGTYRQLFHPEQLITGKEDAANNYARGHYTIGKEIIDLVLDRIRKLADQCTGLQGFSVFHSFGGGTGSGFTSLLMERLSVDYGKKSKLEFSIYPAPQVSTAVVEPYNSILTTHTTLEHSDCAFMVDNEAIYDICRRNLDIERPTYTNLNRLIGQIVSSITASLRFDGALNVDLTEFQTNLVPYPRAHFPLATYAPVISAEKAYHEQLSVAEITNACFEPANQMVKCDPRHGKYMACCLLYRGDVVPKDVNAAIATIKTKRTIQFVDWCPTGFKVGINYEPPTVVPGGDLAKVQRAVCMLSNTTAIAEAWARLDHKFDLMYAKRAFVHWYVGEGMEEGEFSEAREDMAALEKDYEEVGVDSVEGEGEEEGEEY
Sequence of KIF18A (P02554 whole entry partner): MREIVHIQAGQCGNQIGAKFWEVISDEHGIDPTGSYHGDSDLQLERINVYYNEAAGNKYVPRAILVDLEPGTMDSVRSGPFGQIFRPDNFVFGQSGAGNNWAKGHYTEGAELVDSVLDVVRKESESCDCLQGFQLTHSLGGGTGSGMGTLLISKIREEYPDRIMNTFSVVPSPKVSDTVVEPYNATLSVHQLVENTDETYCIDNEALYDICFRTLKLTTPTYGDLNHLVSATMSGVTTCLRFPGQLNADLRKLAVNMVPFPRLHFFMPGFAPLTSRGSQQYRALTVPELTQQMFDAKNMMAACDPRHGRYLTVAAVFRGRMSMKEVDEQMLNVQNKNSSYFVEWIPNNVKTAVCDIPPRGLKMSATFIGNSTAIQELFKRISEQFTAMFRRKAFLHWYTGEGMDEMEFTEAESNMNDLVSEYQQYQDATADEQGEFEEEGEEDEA

Row | IC50 | Structure (SMILES)
1 | 0.05 to 0.5 µM | COC1c2cc3c(NC(=O)c4ccc(NS(=O)(=O)CCO)cc4N4CCC5(CC4)CC5)cccc3n2CCC1(F)F (single isomer, unassigned) [Compound 385-P2, N-(8,8-difluoro-9-(methoxy-d3)-6,7,8,9-tetrahydropyridino[1,2-a]indol-1-yl)-4-((2-hydroxyethyl)sulfonamido)-2-(6-azaspiro[2.5]oct-6-yl)benzamide]
2 | 0.05 to 0.5 µM | COC1c2cc3c(NC(=O)c4ccc(NS(=O)(=O)CCO)cc4N4CCC5(CC4)CC5)cccc3n2CCC1(F)F (single isomer, unassigned) [Compound 385-P1, N-(8,8-difluoro-9-(methoxy-d3)-6,7,8,9-tetrahydropyridino[1,2-a]indol-1-yl)-4-((2-hydroxyethyl)sulfonamido)-2-(6-azaspiro[2.5]oct-6-yl)benzamide]
3 | 0.5 to 5 µM | O=C(Nc1ncnc2c1ccn2CC1CC1)c1ccc(NS(=O)(=O)CCO)cc1N1CCC2(CC1)CC2 [Example 34, N-(7-(cyclopropylmethyl)-7H-pyrrolo[2,3-d]pyrimidin-4-yl)-4-((2-hydroxyethyl)sulfonamido)-2-(6-azaspiro[2.5]octan-6-yl)benzamide]
4 | 0.5 to 5 µM | O=C(Nc1cccc(N2CCC(F)(F)CC2)c1)Nc1ccc(NS(=O)(=O)CCO)cc1N1CCC2(CC1)CC2 [Example 147, N-(4-(3-(3-(4,4-difluoropiperidin-1-yl)phenyl)urea)-3-(6-azaspiro[2.5]octan-6-yl)phenyl)-2-hydroxyethane-1-sulfonamide]
5 | 0.5 to 5 µM | O=C(Nc1cccc2c1CCN2CC1CCCC1)c1ccc(NS(=O)(=O)CCO)cc1N1CCC2(CC1)CC2 [Example 15, N-(1-(cyclopentylmethyl)dihydroindol-4-yl)-4-((2-hydroxyethyl)sulfonamido)-2-(6-azaspiro[2.5]oct-6-yl)benzamide]
6 | 0.05 to 0.5 µM | O=C(Nc1ccnc2c1CCN2CC1CC1)c1ccc(NS(=O)(=O)CCO)cc1N1CCC2(CC1)CC2 [Example 32, N-(1-(cyclopropylmethyl)-2,3-dihydro-1H-pyrrolo[2,3-b]pyridin-4-yl)-4-((2-hydroxyethyl)sulfanilamido)-2-(6-azaspiro[2.5]octan-6-yl)4-benzamide]
7 | 0.05 to 0.5 µM | O=C(Nc1cccc2c1ccn2CC1CC1)c1ccc(NS(=O)(=O)CCO)nc1N1CCC2(CC1)CC2 [Example 38, N-(1-(cyclopropylmethyl)-1H-indol-4-yl)-6-((2-hydroxyethyl)sulfonamido)-2-(6-azaspiro[2.5]oct-6-yl)nicotinamide]
8 | 0.5 to 5 µM | CC(C)(C)Cn1ccc2c(NC(=O)c3ccc(NS(=O)(=O)CCO)cc3N3CCC4(CC3)CC4)cccc21 [Example 281, 4-((2-hydroxyethyl)sulfonamido)-N-(1-neopentyl-1H-indol-4-yl)-2-(6-azaspiro[2.5]octan-6-yl)benzamide]
9 | 0.05 to 0.5 µM | CNc1cc(NS(=O)(=O)CCO)cc(N2CCC3(CC2)CC3)c1C(=O)Nc1ccnc2c1ccn2CC1CC1 [Example 40]
10 | > 5 µM | O=C(Nc1ccc2c(c1)N(CC1CC1)CC2)Nc1ccc(NS(=O)(=O)CCO)cc1N1CCC2(CC1)CC2 [Example 150, N-(4-(3-(1-(cyclopropylmethyl)indolin-6-yl)urea)-3-(6-azaspiro[2.5]octan-6-yl)phenyl)-2-hydroxyethane-1-sulfonamide]
11 | 0.05 to 0.5 µM | CN1CCCc2c(NC(=O)c3ccc(NS(=O)(=O)CCO)cc3N3CCC4(CC3)CC4)ccnc21 [Example 7, 4-(2-hydroxyethyl)sulfonamido-N-(8-methyl-5,6,7,8-tetrahydro-1,8-naphthyridin-4-yl)-2-(6-azaspiro[2.5]octan-6-yl)benzamide]
12 | 0.05 to 0.5 µM | Nc1cc(NS(=O)(=O)CCO)cc(N2CCC3(CC2)CC3)c1C(=O)Nc1cccc2c1CCN2CC1CC1 [Example 42]
13 | 0.5 to 5 µM | O=C(Nc1cccc2c1CCN2CC1CC1)c1ccc(NS(=O)(=O)CCO)cc1OC1CCCCC1 [Example 27, 2-(cyclohexyloxy)-N-(1-(cyclopropylmethyl)indolin-4-yl)-4-((2-hydroxyethyl)sulfonamide)benzamide]
14 | 0.05 to 0.5 µM | O=C(Nc1ccnc(N2CCC(F)(F)CC2)c1)c1ccc(NS(=O)(=O)CCO)cc1OC1CCCCC1 [Example 22]

Continued, compound first:

Row | Structure (SMILES) | IC50
15 | O=C(Nc1cccc2c1CCN2CC1CC1)c1ccc(NS(=O)(=O)CCO)cc1OC1CCCC1 [Example 30, 2-(cyclopentoxy)-N-(1-(cyclopropylmethyl)indolin-4-yl)-4-((2-hydroxyethyl)sulfonamide)benzamide] | 0.5 to 5 µM
16 | CC1(Cn2ccc3c(NC(=O)c4ccc(NS(=O)(=O)CCO)cc4N4CCC5(CC4)CC5)cccc32)CC1 [Example 285, 4-((2-hydroxyethyl)sulfonamido)-N-(1-((1-methylcyclopropyl)methyl)-1H-indol-4-yl)-2-(6-azaspiro[2.5]oct-6-yl)benzamide] | 0.05 to 0.5 µM
17 | Cn1ccc2c(NC(=O)c3ccc(NS(=O)(=O)CCO)cc3N3CCC4(CC3)CC4)cccc21 [Example 10, 4-((2-hydroxyethyl)sulfonamido)-N-(1-methyl-1H-indol-4-yl)-2-(6-azaspiro[2.5]octan-6-yl)benzamide] | 0.05 to 0.5 µM
18 | O=C(Nc1ccc2c(c1)CCN2CC1CC1)Nc1ccc(NS(=O)(=O)CCO)cc1N1CCC2(CC1)CC2 [Example 151, N-(4-(3-(1-(cyclopropylmethyl)indolin-5-yl)urea)-3-(6-azaspiro[2.5]octan-6-yl)phenyl)-2-hydroxyethane-1-sulfonamide] | > 5 µM
19 | O=C(Nc1ccnc2c1CCCN2CC1CC1)c1ccc(NS(=O)(=O)CCO)cc1N1CCC2(CC1)CC2 [Example 8, 4-(2-hydroxyethyl)sulfonamido-N-(8-cyclopropylmethyl-5,6,7,8-tetrahydro-1,8-naphthyridin-4-yl)-2-(6-azaspiro[2.5]octan-6-yl)benzamide] | 0.05 to 0.5 µM
20 | O=C(Nc1cccc2c1CCN2CC1CC1)c1ccc(NS(=O)(=O)CCO)c2c1OCCO2 [Example 25, N-(1-(cyclopropylmethyl)indolin-4-yl)-8-((2-hydroxyethyl)sulfonamido)-2,3-dihydrobenzo[b][1,4]dioxine-5-carboxamide] | > 5 µM
21 | O=C(Nc1ccnc(N2CCC(F)(F)CC2)c1)c1ccc(NS(=O)(=O)CCO)cc1OC1CCCC1 [Example 28, 2-(cyclopentoxy)-N-(2-(4,4-difluoropiperidin-1-yl)pyridin-4-yl)-4-((2-hydroxyethyl)sulfonamide)benzamide] | 0.5 to 5 µM
22 | O=C(Nc1cccc2c1CCCCN2CC1CC1)c1ccc(NS(=O)(=O)CCO)cc1N1CCC2(CC1)CC2 [Example 12] | 0.5 to 5 µM
23 | Cc1cc(NC(=O)c2ccc(NS(=O)(=O)CCO)cc2N2CCC3(CC2)CC3)c2ccn(CC3CC3)c2n1 [Example 37, N-(1-(cyclopropylmethyl)-6-methyl-1H-pyrrolo[2,3-b]pyridin-4-yl)-4-((2-hydroxyethyl)sulfonamido)-2-(6-azaspiro[2.5]oct-6-yl)benzamide] | 0.05 to 0.5 µM
24 | O=C(Nc1cnc2n1CCCC2)c1ccc(NS(=O)(=O)CCO)cc1N1CCC2(CC1)CC2 [Example 19, 4-((2-hydroxyethyl)sulfonamido)-2-(6-azaspiro[2.5]octan-6-yl)-N-(5,6,7,8-tetrahydroimidazo[1,2-a]pyridin-3-yl)benzamide] | > 5 µM
25 | O=C(Nc1ccnc(N2CCC(F)(F)CC2)c1)c1ccc(NS(=O)(=O)CCO)cc1OC1CCC(F)(F)CC1 [Example 24, 2-((4,4-difluorocyclohexyl)oxy)-N-(2-(4,4-difluoropiperidin-1-yl)pyridin-4-yl)-4-((2-hydroxyethyl)sulfonamide)benzamide] | 0.5 to 5 µM

— patent US20260070887A1 (Shenzhen Zhongge Biological Technology Co., Ltd., priority 2022, published 2026)
